Reference: patent publication US20240226125A1, “USE OF SOTAGLIFLOZIN FOR THE TREATMENT OF PATIENTS WITH TYPE 1 DIABETES MELLITUS” (priority 2019, published 2024)

Key:
[1] = tested on: adult patients with Type 1 Diabetes Mellitus who have inadequate glycemic control with insulin therapy; experiment: inTandem 1 and inTandem 2 pooled double-blind placebo-controlled clinical studies, efficacy; type: in vivo, human; settings: for HbA1c change from Baseline, Week 24 Treatment Comparison, LS Mean / HbA1c change from Baseline, Week 52 Treatment Comparison, LS Mean: optimized insulin
[2] = tested on: adult patients diagnosed with T1D who have inadequate glycemic control with insulin therapy; experiment: inTandem 3 phase 3 randomized double-blind placebo-controlled study; type: in vivo, human; settings: for A1C (%) LS Mean Difference (SE) / Body weight (kg) LS Mean Difference (SE) / Fasting plasma glucose (mg/dL) LS Mean Difference (SE) / SBP (mmHg) LS Mean Difference (SE): 400 mg vs placebo; for A1C (%) LS Mean Difference (SE) / Body weight (kg) LS Mean Difference (SE) / Fasting plasma glucose (mg/dL) LS Mean Difference (SE) / SBP (mmHg) LS Mean Difference (SE) / A1C (%) LS Mean change (SE) / Body weight (kg) LS Mean change (SE) / Fasting plasma glucose (mg/dL) LS Mean change (SE) / SBP (mmHg) LS Mean change (SE): InTandem3; for A1C (%) LS Mean change (SE) / Body weight (kg) LS Mean change (SE) / Fasting plasma glucose (mg/dL) LS Mean change (SE) / SBP (mmHg) LS Mean change (SE): 400 mg
[3] = 400 mg, Baseline BMI <27 kg/m^2, Week 52
[4] = 400 mg, Baseline BMI ≥27 kg/m^2, Week 24
[5] = 400 mg, Baseline BMI ≥27 kg/m^2, Week 52
[6] = Baseline BMI <27 kg/m^2, Week 24
[7] = Baseline BMI ≥27 kg/m^2, Week 24
[8] = Sotagliflozin 400 mg vs placebo, Week 24
[9] = Sotagliflozin 400 mg, Week 16, SBP ≥130 mm Hg at baseline
[10] = Sotagliflozin 400 mg, Week 24, insulin pump users
[11] = Sotagliflozin 400 mg, Week 24, nonpump users

In the case of `CCOc1ccc(Cc2cc([C@@H]3O[C@H](SC)[C@@H](O)[C@H](O)[C@H]3O)ccc2Cl)cc1` [sotagliflozin, (2S,3R,4R,5S,6R)-2-(4-chloro-3-(4-ethoxybenzyl)phenyl)-6-(methylthio)tetrahydro-2H-pyran-3,4,5-triol], the “Body weight (kg) LS Mean change (SE)” value [1, 3] is reported as −1.72 (0.238) kg, the “SBP (mmHg) LS Mean change (SE)” value [1, 3] is reported as −1.0 (0.81) mmHg and the “2-hour postprandial plasma glucose (mg/dL) LS Mean change (SE)” value [1, 4] is reported as −39.5 (10.72) mg/dL. The “A1C (%) LS Mean change (SE)” value [1, 4] was −0.50 (0.034) %, the “Body weight (kg) LS Mean change (SE)” value [1, 4] was −2.98 (0.193) kg and the “DDS2 (score) LS Mean change (SE)” value [1, 4] was −0.5 (0.10) score. The “DTSQ (score) LS Mean change (SE)” value [1, 4] was 2.2 (0.26) score, the “Fasting plasma glucose (mg/dL) LS Mean change (SE)” value [1, 4] was −18.6 (3.28) mg/dL and the “SBP (mmHg) LS Mean change (SE)” value [1, 4] was −4.0 (0.64) mmHg. The “Time in range (%) LS Mean change (SE)” value [1, 4] was 13.133 (2.0244) %, the “A1C (%) LS Mean change (SE)” value [1, 5] was −0.38 (0.040) % and the “Body weight (kg) LS Mean change (SE)” value [1, 5] was −3.61 (0.249) kg. The “SBP (mmHg) LS Mean change (SE)” value [1, 5] was −3.2 (0.65) mmHg, the “Weight, Percent Change from Baseline at Week 24, Treatment Comparison vs. PBO LS Mean (SE)” value ([1]; SOTA 200 mg vs PBO, Week 24) was −2.17 (0.188), p < 0.001% and the “HbA1c change from Baseline, Week 24 Treatment Comparison, LS Mean” value ([1]; SOTA 200 mg vs PBO, Week 24) was −0.36%. The “No Weight Gain at Week 52, HbA1c <7.0%: Absolute difference in % (SOTA vs. PBO)” value ([1]; SOTA 200 mg vs PBO, Week 52) was 12.6%, the “No Weight Gain at Week 52, reduction in HbA1c ≥0.5%: Absolute difference in % (SOTA vs. PBO)” value ([1]; SOTA 200 mg vs PBO, Week 52) was 14.9% and the “Weight, Percent Change from Baseline at Week 52, Treatment Comparison vs. PBO LS Mean (SE)” value ([1]; SOTA 200 mg vs PBO, Week 52) was −3.21 (0.291), p < 0.001%. The “HbA1c change from Baseline, Week 52 Treatment Comparison, LS Mean” value ([1]; SOTA 200 mg vs PBO, Week 52) was −0.23%, the “Weight, Percent Change (%) from Baseline at Week 24, LS Mean (SE)” value ([1]; SOTA 200 mg, Week 24) was −1.70 (0.137), p < 0.001% and the “No Weight Gain at Week 52: Percentage HbA1c <7.0%” value ([1]; SOTA 200 mg, Week 52) was 21.8%. The “No Weight Gain at Week 52: Percentage with absolute reduction in HbA1c ≥0.5%” value ([1]; SOTA 200 mg, Week 52) was 23.7%, the “Weight, Percent Change (%) from Baseline at Week 52, LS Mean (SE)” value ([1]; SOTA 200 mg, Week 52) was −2.31 (0.208), p < 0.001% and the “Weight, Percent Change from Baseline at Week 24, Treatment Comparison vs. PBO LS Mean (SE)” value ([1]; SOTA 400 mg vs PBO, Week 24) was −3.02 (0.188), p < 0.001%. The “HbA1c change from Baseline, Week 24 Treatment Comparison, LS Mean” value ([1]; SOTA 400 mg vs PBO, Week 24) was −0.38%, the “No Weight Gain at Week 52, HbA1c <7.0%: Absolute difference in % (SOTA vs. PBO)” value ([1]; SOTA 400 mg vs PBO, Week 52) was 17.0% and the “No Weight Gain at Week 52, reduction in HbA1c ≥0.5%: Absolute difference in % (SOTA vs. PBO)” value ([1]; SOTA 400 mg vs PBO, Week 52) was 20.0%. The “Weight, Percent Change from Baseline at Week 52, Treatment Comparison vs. PBO LS Mean (SE)” value ([1]; SOTA 400 mg vs PBO, Week 52) was −4.24 (0.291), p < 0.001%, the “HbA1c change from Baseline, Week 52 Treatment Comparison, LS Mean” value ([1]; SOTA 400 mg vs PBO, Week 52) was −0.32% and the “Weight, Percent Change (%) from Baseline at Week 24, LS Mean (SE)” value ([1]; SOTA 400 mg, Week 24) was −2.55 (0.137), p < 0.001%. The “No Weight Gain at Week 52: Percentage HbA1c <7.0%” value ([1]; SOTA 400 mg, Week 52) was 26.1%, the “No Weight Gain at Week 52: Percentage with absolute reduction in HbA1c ≥0.5%” value ([1]; SOTA 400 mg, Week 52) was 28.8% and the “Weight, Percent Change (%) from Baseline at Week 52, LS Mean (SE)” value ([1]; SOTA 400 mg, Week 52) was −3.33 (0.209), p < 0.001%. The “efficacy of sotagliflozin versus placebo by BMI subgroup” value ([1]; Week 24, BMI ≥27 kg/m^2 subgroups, A1C, body weight, time in range, DTSQ, DDS2) was “more pronounced”, the “A1C levels compared to placebo (primary endpoint)” value ([1]; both doses, after core treatment period and long-term extension period) was “statistically significant lower A1C levels” and the “primary endpoint (A1C <7.0% at Week 24, no severe hypoglycemia, no DKA)” value ([2]; 400 mg versus placebo) was “reached its primary endpoint”. For the same molecule, the “A1C (%) LS Mean Difference (SE)” value [2, 6] was −0.37 (0.068) %, the “Body weight (kg) LS Mean Difference (SE)” value [2, 6] was −2.47 (0.213) kg and the “Fasting plasma glucose (mg/dL) LS Mean Difference (SE)” value [2, 6] was −21.7 (5.78) mg/dL. For the same molecule, the “SBP (mmHg) LS Mean Difference (SE)” value [2, 6] was −3.4 (0.92) mmHg, the “A1C (%) LS Mean Difference (SE)” value [2, 7] was −0.54 (0.051) % and the “Body weight (kg) LS Mean Difference (SE)” value [2, 7] was −3.41 (0.247) kg. The “Fasting plasma glucose (mg/dL) LS Mean Difference (SE)” value [2, 7] was −24.3 (4.69) mg/dL, the “SBP (mmHg) LS Mean Difference (SE)” value [2, 7] was −3.2 (0.79) mmHg and the “A1C (%) LS Mean change (SE)” value [2, 6] was −0.72 (0.051) %. For the same molecule, the “Body weight (kg) LS Mean change (SE)” value [2, 6] was −1.71 (0.157) kg, the “Fasting plasma glucose (mg/dL) LS Mean change (SE)” value [2, 6] was −10.4 (4.30) mg/dL and the “SBP (mmHg) LS Mean change (SE)” value [2, 6] was −1.7 (0.69) mmHg. The “A1C (%) LS Mean change (SE)” value [2, 7] was −0.86 (0.065) %, the “Body weight (kg) LS Mean change (SE)” value [2, 7] was −2.80 (0.277) kg and the “Fasting plasma glucose (mg/dL) LS Mean change (SE)” value [2, 7] was −23.5 (6.34) mg/dL. The “SBP (mmHg) LS Mean change (SE)” value [2, 7] was −3.8 (1.19) mmHg, the “efficacy compared to placebo on A1C and body weight in the overweight and obese subgroup” value ([2]; BMI ≥27 kg/m^2 vs <27 kg/m^2, InTandem 3) was “more favorable effect” and the “Primary endpoint: Patients achieving glycated hemoglobin <7% without DKA and no severe hypoglycemia, All patients, no.” value ([2]; Sotagliflozin 400 mg (n = 699), Week 24) was 200. For the same molecule, the “Systolic blood pressure in patients with SBP ≥130 mm Hg at baseline, Week 16 LS mean change, LS mean difference from placebo” value ([2]; Sotagliflozin 400 mg vs placebo, Week 16, SBP ≥130 mm Hg at baseline) was −3.5 ± 1.11 mm Hg, the “Daily bolus insulin dose, Week 24 LS mean change from baseline ± SE, LS mean difference from placebo” value [2, 8] was −2.84 ± 0.61 IU/day and the “Daily bolus insulin dose, Week 24 LS mean percent change from baseline ± SE, LS mean difference from placebo” value [2, 8] was −12.32 ± 2.98%. The “Glycated hemoglobin, Week 24 LS mean change from baseline ± SE, LS mean difference from placebo” value [2, 8] was −0.46 ± 0.04%, the “Primary endpoint, All patients, LS mean difference from placebo (95% CI)” value [2, 8] was 13.4% (8.97 to 17.81) and the “Weight, Week 24 LS mean change from baseline ± SE, LS mean difference from placebo” value [2, 8] was -2.98 ± 0.166 kg. The “Primary endpoint, Insulin pump users, LS mean difference from placebo (95% CI)” value ([2]; Sotagliflozin 400 mg vs placebo, Week 24, insulin pump users) was 15.9% (8.58 to 23.38), the “Primary endpoint, Nonpump users, LS mean difference from placebo (95% CI)” value ([2]; Sotagliflozin 400 mg vs placebo, Week 24, nonpump users) was 11.8% (6.14 to 17.38) and the “Systolic blood pressure in patients with SBP ≥130 mm Hg at baseline, Week 16 LS mean change from baseline ± SE” value [2, 9] was −9.2 ± 0.92 mm Hg. The “Systolic blood pressure in patients with SBP ≥130 mm Hg at baseline, Week 16 mean ± SD” value [2, 9] was 131.8 ± 12.02 mm Hg, the “Daily bolus insulin dose, Week 24 LS mean change from baseline ± SE” value ([2]; Sotagliflozin 400 mg, Week 24) was −3.93 ± 0.47 IU/day and the “Daily bolus insulin dose, Week 24 LS mean percent change from baseline ± SE” value ([2]; Sotagliflozin 400 mg, Week 24) was −5.71 ± 2.29%. The “Daily bolus insulin dose, Week 24 mean ± SD” value ([2]; Sotagliflozin 400 mg, Week 24) was 23.90 ± 15.76 IU/day, the “Glycated hemoglobin, Week 24 LS mean change from baseline ± SE” value ([2]; Sotagliflozin 400 mg, Week 24) was −0.79 ± 0.03% and the “Glycated hemoglobin, Week 24 mean ± SD” value ([2]; Sotagliflozin 400 mg, Week 24) was 7.41 ± 0.95%. The “Primary endpoint: Patients achieving glycated hemoglobin <7% without DKA and no severe hypoglycemia, All patients, (%)” value ([2]; Sotagliflozin 400 mg, Week 24) was 28.6%, the “Weight, Week 24 LS mean change from baseline ± SE” value ([2]; Sotagliflozin 400 mg, Week 24) was -2.21 ± 0.12 kg and the “Weight, Week 24 mean ± SD” value ([2]; Sotagliflozin 400 mg, Week 24) was 80.19 ± 17.02 kg. The “Primary endpoint, Insulin pump users, (%)” value [2, 10] was 32.0%, the “Primary endpoint, Insulin pump users, no.” value [2, 10] was 88 and the “Primary endpoint, Nonpump users, (%)” value [2, 11] was 26.4%. The “Primary endpoint, Nonpump users, no.” value [2, 11] was 112.
